Results: patent publication US20080268535A1, “Method for Inducing the Differentiation of Human Myelogenous Leukemia Cells Into Megakarocytes or Thrombocytes” (EWHA University - Industry Collaboration Foundation, priority 2005, published 2008)

How the values were obtained:
Format in all cases: cell-based, human
[1] = test system: K562 cells; assay: Growth curve of K562 cells (trypan blue viable cell count); settings: 40 μg/ml, counted every day for 5 days
Experimental: To examine the effect of the compound (R)-NALPCE on cell growth, K562 cells was monitored for growth in the presence thereof. The cells were aliquoted at a density of 1×10^5 cells per well in 6-well plates and treated with 40 μg/ml. After staining with trypan blue, viable cells were counted every day for 5 days.

[2] = test system: HEL cells; assay: Megakaryocyte differentiation, CD41/CD61 expression over time by FACS, HEL cells; settings: 5 μg/ml, 5 days
Experimental: HEL cells were aliquoted at a density of 3×10^5 cells per well in 6-well plates and treated with 5 μg/ml of (R)-NALPCE, followed by incubation for 5 days. After centrifugation (1,000 rpm, 5 min), the cell pellets thus obtained were washed three times with 0.01% bovine serum albumin (BSA) in PBS. The cells were incubated with 10 μl of anti-CD41-fluorescein-5-isothiocyanate (FITC) (Dako Chemicals, Carpenteria, Calif.) or 20 μl of anti-CD61-phycoerythrin (PE) (BD Pharmingen) in 200 μl 0.01% bovine serum albumin (BSA)-PBS at 4° C. for 50 min with spinning to realize homogeneous fluorescent staining. After centrifugation (1,000 rpm, 10 min), the cell pellets thus obtained were rinsed three times with 0.01% bovine serum albumin (BSA)-PBS. Fluorescence was analyzed on a fluorescence-activated cell sorter (FACS) (Aria) using a Cellquest program.

[3] = test system: K562 cells; assay: Cell differentiation of K562 cells on OP9 cells, optical microscopy
Experimental: A stromal line of OP9 cells derived from […] was aliquoted at a density of 1×10^5 cells in 6-well plates and incubated for 24 hrs. After the OP9 cells were uniformly attached onto the bottom of the plates, K562 cells were layered at a density of 1×10^5 cells on the OP9 cells in 6-well plates. The cells were treated with 40 μg/ml of (R)-NALPCE, or 500 pmole, 10 nmole or 50 nmole of PMA before incubation for 5 days. They were observed under an optical microscope with 200× magnification.

[4] = test system: K562 cells; assay: Production of thrombocytes, K562 cells on OP9 cells, optical microscopy; settings: 40 μg/ml
Experimental: An experiment was conducted in a manner similar to that of Example 7. OP9 cells were aliquoted at a density of 1×10^5 cells per well in 6-well plates and incubated for 24 hrs. After OP9 cells were uniformly attached onto the bottom of the plates, K562 cells were layered at a density of 1×10^5 cells per well over the OP cells in the 6-well plates. Treatment with 40 μg/ml of (R)-NALPCE was conducted before incubation in a day-dependent manner for 5 days. They were observed under an optical microscope with 200× magnification.

[5] = test system: K562 cells; assay: Binding of FITC-fibrinogen to glycoprotein IIb/IIIa complexes of differentiated K562 cells (FACS); settings: K562 cells on OP9 cells, 40 μg/ml, 5 days, activated with 100 nM PMA
Description: Bone marrow progenitor cells, such as K562 cells, have glycoprotein IIb/IIIa complexes expressed thereon at a low level, but the number of complexes increases as the cells increase in size according to differentiation into megakaryocytes. By taking advantage of the fact that fibrinogens, which play a key role in blood clotting, bind to activated glycoprotein IIb/IIIa (GP IIb/IIIa) complex, the differentiation of K562 cells into megakaryocytes by (R)-NALPCE was investigated.
A process similar to that of Experimental Example 8 was conducted. OP9 cells were aliquoted at a density of 1×10^5 cells in 6-well plates and incubated for 24 hrs. After the OP9 cells were uniformly attached onto the bottom of the plates, K562 cells were layered at a density of 1×10^5 cells over the OP9 cells in 6-well plates. The cells were treated with 40 μg/ml of (R)-NALPCE before incubation in a day-dependent manner for 5 days. The (R)-NALPCE-treated K562 cells were transferred to 60 mm-dishes everyday and treated with 100 nM of PMA for 30 min to activate glycoprotein IIb/IIIa complexes. The cells thus differentiated were collected and suspended in 50 μl of PBS. […] Following the addition of […] of PBS, the amount of fibrinogen bound to the surface of the activated K562 cells was quantitatively determined as fluorescence was analyzed on a fluorescence-activated cell sorter (FACS) (Aria) using a Cellquest program.

[6] = test system: K562 cells; assay: Active form of platelet-like cells secreted from differentiated K562 cells, fluorescence microscopy
Experimental: OP9 cells were aliquoted at a density of 1×10^5 cells per well in 6-well plates and incubated for 24 hrs. After the OP9 cells were uniformly attached onto the bottom of the plates, K562 cells were layered at a density of 1×10^5 cells over the OP9 cells in the 6-well plates. The cells were treated with 40 μg/ml of (R)-NALPCE before incubation in a day-dependent manner for 5 days. […] The platelet-like cells were separated from the megakaryocytes by centrifuging the differentiated K562 cells at 500 rpm for 20 min and further centrifuging the supernatant at 3,000 rpm for 10 min.
A morphological comparison was made between the platelet-like cells and the pre-existing blood platelets using fibrinogen-coated slides. General slides (POLY-PREP, Sigma, U.S.A.) were coated with 20 μg/ml of fibrinogen in PBS ((R)-NALPCE-treated group) or with 1% bovine serum albumin (control) in PBS, and then incubated at 37° C. for 2 hrs in a humid atmosphere. A suspension of the separated platelet-like cells and the pre-existing blood platelets in PBS was placed on the slides. […] A drop of a mounting solution was spotted on the slides, which were then covered with a coverslip before observation under a fluorescence microscope. […] The cells thus stained were very gently washed three times with PBS and observed using a fluorescence microscope (Axiovision, Zeiss) with 400× magnification.

In the case of `CCCCCCCCCCCCCCCCCC(=O)NC(COP(=O)([O-])OCC[N+](C)(C)C)C(=O)OC` [(R)-NALPCE, N-steroyl-O-phosphocholine-D-serine methyl ester], the “cell growth curve (viable cells)” value [1] is reported as “relatively low cell growth curve”, the “CD41 and CD61 expression rate” value [2] is reported as “increase in expression rate in a day-dependent manner” and the “production or secretion of thrombocytes by differentiated megakaryocytes” value ([3]; (R)-NALPCE with OP9 cells, PMA treatment) is reported as “released a lot of thrombocytes”. The “cell morphology (optical microscope)” value ([3]; K562 cells on OP9 cells, 40 μg/ml, 5 days) was “increased in size in a time-dependent manner, and anucleate cells such as thrombocytes were observed”, the “cell size (optical microscope)” value ([4]; 5 days) was “increased in size in a time-dependent manner” and the “appearance of anucleate cells” value ([4]; from Day 4 after the treatment) was “anucleate cells, such as thrombocytes, were observed”. The “fluorescence of fibrinogens bound to glycoprotein IIb/IIIa complexes” value [5] was “increase in a day-dependent manner”, the “appearance of anucleate platelet-like cells” value ([6]; K562 cells on OP9 cells, 40 μg/ml, Day 5 after the treatment) was “a large number of anucleate platelet-like cells appeared” and the “activation of released anucleate cells” value ([6]; fibrinogen-coated slides, activators ADP, epinephrine, AYPGFK, MnCl2) was “activated in the same manner as the pre-existing blood platelets”.
